The text below walks through data of PMC12292504, “Improving Cofactor Promiscuity of HMG-CoA Reductase from Ruegeria pomeroyi Through Rational Design” (Biomolecules, 2025).

This test deals with T1, rpHMGR (Ruegeria pomeroyi, UniProt Q5LL64, D154K).
T1 construct: gene mvaA; N-terminal 6xHis-tag (pET28a-rpHMGR(N)), codon-optimised synthetic gene, E. coli BL21(DE3), Ni-NTA purified; homodimer only by model
The experiment in a line: NADPH consumption followed at […] nm (reductive deacylation of HMG-CoA). It is filed as biochemical. Conditions: 0.5 mM NADPH, 0.5 mM (R,S)-HMG-CoA, 50 mM Tris-HCl, 50 mM NaCl, 5 mM DTT, pH 7.5, 30 °C.

T1 sequence (Q5LL64 entry or part of it D154K): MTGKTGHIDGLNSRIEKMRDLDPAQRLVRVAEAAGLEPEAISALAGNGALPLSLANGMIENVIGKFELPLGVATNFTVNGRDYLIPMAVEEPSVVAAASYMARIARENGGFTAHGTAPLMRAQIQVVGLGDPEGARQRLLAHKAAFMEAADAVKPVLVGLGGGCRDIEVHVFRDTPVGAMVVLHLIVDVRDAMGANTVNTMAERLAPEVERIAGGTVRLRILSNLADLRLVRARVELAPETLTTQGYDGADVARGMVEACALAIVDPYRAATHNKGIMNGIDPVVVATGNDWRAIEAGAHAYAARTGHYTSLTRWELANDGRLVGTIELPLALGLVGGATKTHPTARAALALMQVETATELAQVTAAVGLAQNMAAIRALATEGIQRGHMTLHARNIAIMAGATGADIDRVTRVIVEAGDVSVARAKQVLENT

For the compound `NC(=O)C1=CN([C@@H]2O[C@H](COP(=O)(O)OP(=O)(O)OC[C@H]3O[C@@H](n4cnc5c(N)ncnc54)[C@H](OP(=O)(O)O)[C@@H]3O)[C@@H](O)[C@H]2O)C=CC1` [NADPH], the specific activity result is listed as “D154K mutant exhibited a significantly improved ability to utilize NADPH”.
